According to patent US20100273772A1, “Bisaryl Alkynylamides as Negative Allosteric Modulators of Metabotropic Glutamate Receptor 5 (MGLUR5)” (Wyeth LLC, priority 2009, published 2010):

Key:
rat mGluR5 receptor = biological target: T1, rat mGluR5 receptor (Rattus norvegicus, UniProt P31424); experiment: [3H]-MPEP binding HEK-293 cell membranes expressing a rat mGluR5 receptor; details: displacement of 4 nM [3H]-MPEP, HEK-293 cell membranes expressing rat mGluR5, 60 minute at room temperature; read-out: mGluR5 Ligand Binding DR Ki
T1 construct: expressed in transfected cells; host or cells: HEK-293
T1 sequence (P31424 21-1203): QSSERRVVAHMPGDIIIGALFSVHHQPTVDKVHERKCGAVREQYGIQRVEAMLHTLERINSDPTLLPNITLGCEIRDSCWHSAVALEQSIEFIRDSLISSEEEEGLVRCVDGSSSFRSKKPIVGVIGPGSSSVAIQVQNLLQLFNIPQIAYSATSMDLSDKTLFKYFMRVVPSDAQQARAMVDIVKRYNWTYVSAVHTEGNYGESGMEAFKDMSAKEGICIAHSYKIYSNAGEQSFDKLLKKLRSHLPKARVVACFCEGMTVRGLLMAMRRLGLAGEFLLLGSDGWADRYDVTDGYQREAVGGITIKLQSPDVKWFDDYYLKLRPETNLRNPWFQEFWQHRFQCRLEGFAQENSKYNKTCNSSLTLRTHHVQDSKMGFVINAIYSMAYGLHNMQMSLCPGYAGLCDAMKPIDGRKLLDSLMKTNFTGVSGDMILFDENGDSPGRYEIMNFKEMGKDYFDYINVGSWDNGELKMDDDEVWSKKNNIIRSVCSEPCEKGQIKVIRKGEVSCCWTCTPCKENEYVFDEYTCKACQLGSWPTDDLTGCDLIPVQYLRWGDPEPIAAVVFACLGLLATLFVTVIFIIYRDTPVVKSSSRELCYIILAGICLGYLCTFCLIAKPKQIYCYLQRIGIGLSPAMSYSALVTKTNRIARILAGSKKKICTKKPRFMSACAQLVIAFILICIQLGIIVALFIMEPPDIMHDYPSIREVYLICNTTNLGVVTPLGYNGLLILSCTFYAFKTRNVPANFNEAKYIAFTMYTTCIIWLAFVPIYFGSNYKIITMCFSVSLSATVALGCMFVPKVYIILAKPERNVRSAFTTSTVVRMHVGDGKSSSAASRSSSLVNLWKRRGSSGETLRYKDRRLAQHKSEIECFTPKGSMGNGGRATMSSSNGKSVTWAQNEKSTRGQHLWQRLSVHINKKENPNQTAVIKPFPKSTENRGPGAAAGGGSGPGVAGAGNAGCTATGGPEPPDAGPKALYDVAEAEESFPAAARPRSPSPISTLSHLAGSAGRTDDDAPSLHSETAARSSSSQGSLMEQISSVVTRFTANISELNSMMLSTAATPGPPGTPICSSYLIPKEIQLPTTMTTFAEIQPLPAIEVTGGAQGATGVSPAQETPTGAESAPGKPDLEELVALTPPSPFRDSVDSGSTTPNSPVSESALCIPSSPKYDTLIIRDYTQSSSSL
Experimental: TITLE: [^3H]-MPEP binding HEK-293 cell membranes expressing a rat mGluR5 receptor. PURPOSE: To identify high affinity compounds at the rat mGluR5 receptor based on their ability to displace the mGluR5 negative allosteric modulator, MPEP.
mGluR5 expressing HEK-293 cells are scraped off the plate, transferred to centrifuge tubes, and washed twice by centrifugation (2000 rpm for 10 min., 4° C.) in buffer (50 mM Tris pH 7.5). The resulting pellets are aliquoted and placed at −80° C. On the day of assay, the cells are thawed on ice, and resuspended in buffer. The binding assay is performed in a 96 well microtiter plate in a total volume of 250 μL. Non-specific binding is determined in the presence of 10 μM MPEP. Binding reaction includes a final radioligand [^3H]-MPEP concentration of 4 nM and 12-25 ug membrane protein per well. Following a 60 minute incubation at room temperature, the reaction is terminated by the addition of ice cold buffer and rapid filtration through a GF/B filter presoaked for 30 minutes in 0.5% PEI. Compounds are initially tested in a single point assay to determine percent inhibition at 10 μM. Subsequently, Ki values are determined for compounds defined to be active.
% inhibition and Ki values generated by GraphPad Prism and Excel Fit. IC50 values are calculated using GraphPad by fitting to a 1 or 2 site-binding model. Ki values are calculated from the apparent IC50 values using the Cheng-Prussof equation:
(§1) where [L]=concentration of free radioligand and Kd=dissociation constant of radioligand for the receptor. TITLE: Identification of metabotropic glutamate receptor 5 antagonists using a stable, sensitive fluorescence-based screening system PURPOSE: The aim of the research presented here was to develop a robust functional assay to measure changes in intracellular calcium, with the goal of identifying potent mGluR5 antagonists.

[1] = biological target: T2, metabotropic glutamate receptor 5 (Rattus norvegicus, UniProt P31424); experiment: FLIPR Calcium 3 fluorescence-based functional assay of intracellular calcium, mGluR5 antagonist activity; type: cell-based; details: inhibition of glutamate (EC90, ~50 uM) stimulated calcium levels, mGluR5 HEK-293 cells; read-out: mGluR5 FLIPR MP Antagonist DR IC50
T2 construct: expressed in transfected cells; host or cells: HEK-293
T2 sequence (P31424 21-1203): as above
Excerpt: as §1
The FLIPR Calcium 3 Assay Kit is designed to work with many cell types, both adherent and non-adherent. Optimal cell conditions for the FLIPR Calcium 3 Assay Kit require the creation of a confluent cell monolayer before placing the plates in FLIPR or FlexStation. In general, we start with 50,000 mGluR5 HEK-293 cells/well for a 96-well plate. For adherent cells, seeding cells overnight with a plating volume of 100 μL/well worked for 96-well plates.
Remove cell plates from the incubator. Remove the supernatant medium. Add 180 ul of Loading Buffer to each well (for 96-well plates). HBSS buffer component B) pipette 100 mL of 10× Hank's Balanced Salt Solution and 20 mL of 1M Hepes buffer
Incubate cell plates for 1 hour at 37° C. and then keep the plates at room temperature until used.
After incubation, transfer the plates directly to FLIPR and begin the calcium assay as described in the FLIPR system manual. For a signal test, a starting average count of ˜10,000 is recommended. Recommended experimental setup parameters are as follows. Faster addition speeds can lead to better mixing of compounds and lower signal variance across the plate.
Test or reference compound is added to the 96-well plate (manually). […] Relative Fluorescence Units (RFUs) are recorded over a given time period (stated above) depending on the platform system used.
For antagonists, results are expressed as % inhibition of glutamate stimulated Calcium levels. IC50 values were calculated by Prism GraphPad using a 4-parameter logistic equation. IC50 values are calculated using GraphPad by fitting to a 1 site-model.

Structure (SMILES) | Ki (rat mGluR5 receptor) | IC50 [1]
COc1ccc(C(=O)N2CCc3cc(OC)c(OC)cc3C2)cc1C#Cc1ccccn1 [Example 20, 6,7-dimethoxy-2-[4-methoxy-3-(pyridin-2-ylethynyl)benzoyl]-1,2,3,4-tetrahydroisoquinoline] | 36 nM | 49 nM
COc1ccc(C(=O)N2CCc3cccc(OC)c3C2)cc1C#Cc1ccccn1 [Example 21, 8-methoxy-2-[4-methoxy-3-(pyridin-2-ylethynyl)benzoyl]-1,2,3,4-tetrahydroisoquinoline] | 3 nM | 34 nM
COc1ccc(C(=O)N2CCc3ccccc3C2c2cccs2)cc1C#Cc1ccccn1 (centres unmarked) [Example 22, 2-[4-methoxy-3-(pyridin-2-ylethynyl)benzoyl]-1-(2-thienyl)-1,2,3,4-tetrahydroisoquinoline] | 22 nM | 220 nM
COc1ccc(C(=O)N2Cc3ccccc3C(S(=O)(=O)N3CCS(=O)(=O)CC3)C2)cc1C#Cc1ccccn1 (centres unmarked) [Example 25, 4-[(1,1-dioxidothiomorpholin-4-yl)sulfonyl]-2-[4-methoxy-3-(pyridin-2-ylethynyl)benzoyl]-1,2,3,4-tetrahydroisoquinoline] | 70 nM | 97 nM
COc1ccc(C(=O)N2CCc3ccccc3C2c2ccccc2)cc1C#Cc1ccccn1 (centres unmarked) [Example 26, 2-[4-methoxy-3-(pyridin-2-ylethynyl)benzoyl]-1-phenyl-1,2,3,4-tetrahydroisoquinoline] | 57 nM | 169 nM
COc1ccc(C(=O)N2CCc3ccccc3C2c2ccco2)cc1C#Cc1ccccn1 (centres unmarked) [Example 27, 1-(2-furyl)-2-[4-methoxy-3-(pyridin-2-ylethynyl)benzoyl]-1,2,3,4-tetrahydroisoquinoline] | 21 nM | 40 nM
COc1ccc(C(=O)N2Cc3ccccc3C(CNc3ccccc3)C2)cc1C#Cc1ccccn1 (centres unmarked) [Example 29, N-({2-[4-methoxy-3-(pyridin-2-ylethynyl)benzoyl]-1,2,3,4-tetrahydroisoquinolin-4-yl}methyl)aniline] | 68 nM | 447 nM
COc1ccc2c(c1)CCN(C(=O)c1ccc(OC)c(C#Cc3ccccn3)c1)C2 [Example 31, 6-methoxy-2-[4-methoxy-3-(pyridin-2-ylethynyl)benzoyl]-1,2,3,4-tetrahydroisoquinoline] | 8 nM | 61 nM
COc1ccc(C(=O)N2Cc3ccc(C)cc3C2)cc1C#Cc1ccccn1 [Example 32, 2-[4-methoxy-3-(pyridin-2-ylethynyl)benzoyl]-5-methylisoindoline] | 3 nM | 42 nM
COc1ccc(C(=O)N2Cc3ccc(Br)cc3C2)cc1C#Cc1ccccn1 [Example 33, 5-bromo-2-[4-methoxy-3-(pyridin-2-ylethynyl)benzoyl]isoindoline] | 2 nM | 173 nM
COc1ccc(C(=O)N2Cc3cc(Cl)c(Cl)cc3C2)cc1C#Cc1ccccn1 [Example 34, 5,6-dichloro-2-[4-methoxy-3-(pyridin-2-ylethynyl)benzoyl]isoindoline] | 17 nM | 1450 nM
COc1ccc(C(=O)N2Cc3ccc([N+](=O)[O-])cc3C2)cc1C#Cc1ccccn1 [Example 35, 2-[4-methoxy-3-(pyridin-2-ylethynyl)benzoyl]-5-nitroisoindoline] | 23 nM | 61 nM
COc1ccc(C(=O)N2Cc3cccc(F)c3C2)cc1C#Cc1ccccn1 [Example 36, 4-fluoro-2-[4-methoxy-3-(pyridin-2-ylethynyl)benzoyl]isoindoline] | 6 nM | 25 nM
COc1ccc(C(=O)N2Cc3ccc(F)cc3C2)cc1C#Cc1ccccn1 [Example 37, 5-fluoro-2-[4-methoxy-3-(pyridin-2-ylethynyl)benzoyl]isoindoline] | 6 nM | 40 nM
COc1ccc(C(=O)N2Cc3cccc(Cl)c3C2)cc1C#Cc1ccccn1 [Example 38, 4-chloro-2-[4-methoxy-3-(pyridin-2-ylethynyl)benzoyl]isoindoline] | 2 nM | 51 nM

Further lines, results first:

Ki (rat mGluR5 receptor) | IC50 [1] | Structure (SMILES)
23 nM | 26 nM | COc1ccc(C(=O)N2CCc3ncccc3C2)cc1C#Cc1ccccn1 [Example 39, 6-[4-methoxy-3-(pyridin-2-ylethynyl)benzoyl]-5,6,7,8-tetrahydro-1,6-naphthyridine]
22 nM | 21 nM | COc1ccc(C(=O)N2CCc3ncc(C)cc3C2)cc1C#Cc1ccccn1 [Example 40, 6-[4-methoxy-3-(pyridin-2-ylethynyl)benzoyl]-3-methyl-5,6,7,8-tetrahydro-1,6-naphthyridine]
26 nM | 12 nM | COc1ccc(C(=O)N2Cc3cnc(C)cc3C2)cc1C#Cc1ccccn1 [Example 41, 2-[4-methoxy-3-(pyridin-2-ylethynyl)benzoyl]-6-methyl-2,3-dihydro-1H-pyrrolo[3,4-c]pyridine]
20 nM | 28 nM | COc1ccc(C(=O)N2Cc3cnc(C)c(C)c3C2)cc1C#Cc1ccccn1 [Example 42, 2-[4-methoxy-3-(pyridin-2-ylethynyl)benzoyl]-6,7-dimethyl-2,3-dihydro-1H-pyrrolo[3,4-c]pyridine]
12 nM | 17 nM | COc1ccc(C(=O)N2Cc3cnc(C)c(Cl)c3C2)cc1C#Cc1ccccn1 [Example 43, 7-chloro-2-[4-methoxy-3-(pyridin-2-ylethynyl)benzoyl]-6-methyl-2,3-dihydro-1H-pyrrolo[3,4-c]pyridine]
20 nM | 14 nM | COc1ccc(C(=O)N2Cc3cnc(C)c(N)c3C2)cc1C#Cc1ccccn1 [Example 44, 2-[4-methoxy-3-(pyridin-2-ylethynyl)benzoyl]-6-methyl-2,3-dihydro-1H-pyrrolo[3,4-c]pyridin-7-amine]
31 nM | 35 nM | COc1ccc(C(=O)N2Cc3cnc(C)c(OC)c3C2)cc1C#Cc1ccccn1 [Example 45, 7-methoxy-2-[4-methoxy-3-(pyridin-2-ylethynyl)benzoyl]-6-methyl-2,3-dihydro-1H-pyrrolo[3,4-c]pyridine]
31 nM | 18 nM | COc1ccc(C(=O)N2Cc3ccncc3C2)cc1C#Cc1ccccn1 [Example 46, 2-[4-methoxy-3-(pyridin-2-ylethynyl)benzoyl]-2,3-dihydro-1H-pyrrolo[3,4-c]pyridine]
30 nM | 33 nM | COc1ccc(C(=O)N2CCc3oc(C)nc3C2)cc1C#Cc1ccccn1 [Example 47, 5-{[4-methoxy-3-(pyridin-2-ylethynyl)phenyl]carbonyl}-2-methyl-4,5,6,7-tetrahydro[1,3]oxazolo[4,5-c]pyridine]
23 nM | 42 nM | COc1ccc(C(=O)N2CCc3nc(C)sc3C2)cc1C#Cc1ccccn1 [Example 48, 5-{[4-methoxy-3-(pyridin-2-ylethynyl)phenyl]carbonyl}-2-methyl-4,5,6,7-tetrahydro[1,3]thiazolo[5,4-c]pyridine]
17 nM | 17 nM | COc1ccc(C(=O)N2CCc3cccnc3C2)cc1C#Cc1ccccn1 [Example 50, 7-{[4-methoxy-3-(pyridin-2-ylethynyl)phenyl]carbonyl}-5,6,7,8-tetrahydro-1,7-naphthyridine]
13 nM | 30 nM | COc1ccc(C(=O)N2CCc3ncc(Cl)cc3C2)cc1C#Cc1ccccn1 [Example 51, 3-chloro-6-{[4-methoxy-3-(pyridin-2-ylethynyl)phenyl]carbonyl}-5,6,7,8-tetrahydro-1,6-naphthyridine]
29 nM | 49 nM | COc1ccc(C(=O)N2CCc3ncc(C(F)(F)F)cc3C2)cc1C#Cc1ccccn1 [Example 52, 6-{[4-methoxy-3-(pyridin-2-ylethynyl)phenyl]carbonyl}-3-(trifluoromethyl)-5,6,7,8-tetrahydro-1,6-naphthyridine]
